# Assay results taken from patent publication US20250339569A1, “CARBONIC ANHYDRASE IX LIGANDS” (priority 2021, published 2025).
# Starred links: 1 amine or outer side, 2 acyl side, 3 side chain; linkers in the order of their positions; H or OH if unused. Positions of bridges follow the written chain, without caps; N, C: chain ends. Non-standard residues stand in square brackets, D forms with d. Residues, ends and D or L forms follow the SMILES beside them. *: point of attachment. NH(CH2)3NH(O2Oc(DOTA)) = O=C(O)CN1CCN(CC(=O)O)CCN(CC(=O)NCCOCCOCC(=O)NCCCN*)CCN(CC(=O)O)CC1; DOTA = O=C(O)CN1CCN(CC(=O)O)CCN(CC(=O)*)CCN(CC(=O)O)CC1; X43 = CCC(=O)Nc1cccc(C[C@H](N[*:1])C(=O)[*:2])c1; Phe(4-NH2) = Nc1ccc(C[C@H](N)C(=O)O)cc1; mXylylene = c1cc(C[*:1])cc(C[*:2])c1; X2 = O=C(CN1CCC(N[*:1])CC1)[*:2]; X52 = NS(=O)(=O)c1cnn(CC(=O)*)c1; tBuAla = CC(C)(C)C[C@H](N)C(=O)O; X1 = O=C(CN1CCN([*:1])CC1)[*:2]; Pen = CC(C)(S)[C@H](N)C(=O)O; Propanoyl(3-OH) = O=C(CCO)*; Isovaleryl = CC(C)CC(=O)*; X64 = c1cc2cc(CN*)ccc2cn1; Orn = NCCC[C@H](N)C(=O)O; Dab = NCC[C@H](N)C(=O)O; Hexanoyl = CCCCCC(=O)*; X70 = N#Cc1ccc(CN*)cc1; X56 = O=C(c1nccs1)*; Bn = c1ccc(C*)cc1; Sar = CNCC(=O)O
# Target: T1, CAIX-expressing human HT-29 colorectal cancer cells (Homo sapiens, UniProt Q16790)
# T1 construct: CAIX-expressing human HT-29 colorectal cancer cells; host or cells: HT-29 human colorectal cancer cells
# Assay: FACS binding assay (IC50 determination, competition with tracer 3BP-2776 or 3BP-4149)
# Details: not given
# Procedure, shortened: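 HT-29 cells in FACS buffer (PBS, 1% FCS) at 500.000 cells/ml were exposed to compounds competing with a labelled tracer, with biotinylated compounds detected by 1 μg/mL APC-streptavidin for 30 min on ice. APC/Cy5 median fluorescence was read by flow cytometry and IC50 derived by 4PL fit.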
row,Compound,IC50
1,CC(C)C[C@@H]1NC(=O)[C@H](Cc2c[nH]c3ccccc23)NC(=O)[C@H](Cc2ccc(OCc3ccccc3)cc2)NC(=O)[C@H]2CCCN2C(=O)[C@H](CCC(=O)O)NC(=O)[C@@H](NC(=O)[C@H](Cc2ccc(O)cc2)NC(=O)[C@@H](NC(=O)CN2CCC(NC(=O)CN3CCN(CC(=O)O)CCN(CC(=O)O)CCN(CC(=O)O)CC3)CC2)C(C)C)CSCc2cccc(c2)CSC[C@@H](C(N)=O)NC(=O)[C@H](CO)NC(=O)[C@H](Cc2c[nH]c3ccccc23)NC(=O)[C@H]([C@@H](C)O)NC1=O [3BP-4127] ({DOTA}-[X2]VYCE[dP]Y(Bn)WLTWSC-NH2; linker 4-13 via mXylylene),< 10 nM
2,CC(C)C[C@@H]1NC(=O)[C@H](Cc2ccc(OCc3ccccc3)cc2)NC(=O)[C@H](CC(=O)O)NC(=O)[C@H]2CCCN2C(=O)[C@H](CCC(=O)O)NC(=O)[C@@H](NC(=O)[C@H](Cc2ccc(O)cc2)NC(=O)[C@@H](NC(=O)CN2CCC(NC(=O)CN3CCN(CC(=O)O)CCN(CC(=O)O)CCN(CC(=O)O)CC3)CC2)C(C)C)CSCc2cccc(c2)CSC[C@@H](C(N)=O)NC(=O)[C@H](CO)NC(=O)[C@H](Cc2c[nH]c3ccccc23)NC(=O)[C@H]([C@@H](C)O)NC1=O [3BP-4137] ({DOTA}-[X2]VYCE[dP]DY(Bn)LTWSC-NH2; linker 4-13 via mXylylene),10 to 79.4 nM

# Same assay, conditions: FACS binding assay, HT-29 cells, competition with tracer 3BP-2776 (10 nM, biotin-labeled), 4° C., 1 hour; read-out: pIC50 category (activity) (converted)
row,Compound,IC50
1,CC(=O)N[C@H](C(=O)N[C@@H](Cc1ccc(O)cc1)C(=O)N[C@H]1CSCc2cccc(c2)CSC[C@@H](C(N)=O)NC(=O)[C@H](CO)NC(=O)[C@H](Cc2c[nH]c3ccccc23)NC(=O)[C@@H]2CCC(=O)NCC[C@H](NC(=O)[C@H]3CCCN3C(=O)[C@H](CCC(=O)O)NC1=O)C(=O)N[C@@H](Cc1c[nH]c3ccccc13)C(=O)N[C@@H](CC(C)C)C(=O)N2)C(C)C [3BP-3960] (Ac-VYCE[dP][Dab]WLEWSC-NH2; linker 3-12 via mXylylene; lactam 6-9),10 to 79.4 nM
2,CC(=O)N[C@H](C(=O)N[C@@H](Cc1ccc(O)cc1)C(=O)N[C@H]1CSCc2cccc(c2)CSC[C@@H](C(N)=O)NC(=O)[C@H](CO)NC(=O)[C@H](Cc2c[nH]c3ccccc23)NC(=O)[C@@H]2CC(=O)NCCC[C@H](NC(=O)[C@H]3CCCN3C(=O)[C@H](CCC(=O)O)NC1=O)C(=O)N[C@@H](Cc1c[nH]c3ccccc13)C(=O)N[C@@H](CC(C)C)C(=O)N2)C(C)C [3BP-4005] (Ac-VYCE[dP][Orn]WLDWSC-NH2; linker 3-12 via mXylylene; lactam 6-9),< 10 nM
3,CC(C)C[C@@H]1NC(=O)[C@H](Cc2ccc(NC(=O)c3nccs3)cc2)NC(=O)[C@H](CC(=O)O)NC(=O)[C@H]2CCCN2C(=O)[C@H](CCC(=O)O)NC(=O)[C@@H](NC(=O)[C@H](Cc2ccc(O)cc2)NC(=O)[C@@H](NC(=O)CN2CCC(NC(=O)CN3CCN(CC(=O)O)CCN(CC(=O)O)CCN(CC(=O)O)CC3)CC2)C(C)C)CSCc2cccc(c2)CSC[C@@H](C(N)=O)NC(=O)[C@H](CO)NC(=O)[C@H](Cc2c[nH]c3ccccc23)NC(=O)[C@H]([C@@H](C)O)NC1=O [3BP-4180] ({DOTA}-[X2]VYCE[dP]D[Phe(4-NH2)](X56)LTWSC-NH2; linker 4-13 via mXylylene),100 to 794 nM
4,CCC(=O)Nc1cccc(C[C@@H]2NC(=O)[C@H](CC(=O)O)NC(=O)[C@H]3CCCN3C(=O)[C@H](CCC(=O)O)NC(=O)[C@@H](NC(=O)[C@H](Cc3ccc(O)cc3)NC(=O)[C@@H](NC(=O)CN3CCC(NC(=O)CN4CCN(CC(=O)O)CCN(CC(=O)O)CCN(CC(=O)O)CC4)CC3)C(C)C)CSCc3cccc(c3)CSC[C@@H](C(N)=O)NC(=O)[C@H](CO)NC(=O)[C@H](Cc3c[nH]c4ccccc34)NC(=O)[C@H]([C@@H](C)O)NC(=O)[C@H](CC(C)C)NC2=O)c1 [3BP-4235] ({DOTA}-[X2]VYCE[dP]D[X43]LTWSC-NH2; linker 4-13 via mXylylene),< 10 nM
5,CC(C)C[C@@H]1NC(=O)[C@H](Cc2c[nH]c3ccccc23)NC(=O)[C@H](CC(=O)O)NC(=O)[C@H]2CCCCNC(=O)CC[C@H](NC1=O)C(=O)N[C@@H](Cc1c[nH]c3ccccc13)C(=O)N[C@@H](CO)C(=O)N[C@H](C(N)=O)CSCc1cccc(c1)CSC[C@H](NC(=O)[C@H](Cc1ccc(O)cc1)NC(=O)[C@@H](NC(=O)CN1CCC(NC(=O)CN3CCN(CC(=O)O)CCN(CC(=O)O)CCN(CC(=O)O)CC3)CC1)C(C)C)C(=O)N[C@@H](CCC(=O)O)C(=O)N2 [3BP-4114] ({DOTA}-[X2]VYCE[dK]DWLEWSC-NH2; linker 4-13 via mXylylene; lactam 6-10),10 to 79.4 nM

# Same assay, conditions: FACS binding assay, HT-29 cells, competition with tracer 3BP-4149 (3 nM, Cy5-labeled), 4° C., 1 hour; read-out: pIC50 category (activity) (converted)
row,Compound,IC50
1,CC(C)C[C@@H]1NC(=O)[C@H](Cc2c[nH]c3ccccc23)NC(=O)[C@H](CCC(=O)NCc2ccc(C#N)cc2)NC(=O)[C@H]2CCCN2C(=O)[C@H](CCC(=O)O)NC(=O)[C@@H](NC(=O)[C@H](Cc2ccc(O)cc2)NC(=O)[C@@H](NC(=O)CN2CCC(NC(=O)CN3CCN(CC(=O)O)CCN(CC(=O)O)CCN(CC(=O)O)CC3)CC2)C(C)C)CSCc2cccc(c2)CSC[C@@H](C(N)=O)NC(=O)[C@H](CO)NC(=O)[C@H](Cc2c[nH]c3ccccc23)NC(=O)[C@H]([C@@H](C)O)NC1=O [3BP-4340] ({DOTA}-[X2]VYCE[dP]E(X70)WLTWSC-NH2; linker 4-13 via mXylylene),10 to 79.4 nM
2,CC(C)C[C@@H]1NC(=O)[C@H](Cc2c[nH]c3ccccc23)NC(=O)[C@H](CCC(=O)NCc2ccc3cnccc3c2)NC(=O)[C@H]2CCCN2C(=O)[C@H](CCC(=O)O)NC(=O)[C@@H](NC(=O)[C@H](Cc2ccc(O)cc2)NC(=O)[C@@H](NC(=O)CN2CCC(NC(=O)CN3CCN(CC(=O)O)CCN(CC(=O)O)CCN(CC(=O)O)CC3)CC2)C(C)C)CSCc2cccc(c2)CSC[C@@H](C(N)=O)NC(=O)[C@H](CO)NC(=O)[C@H](Cc2c[nH]c3ccccc23)NC(=O)[C@H]([C@@H](C)O)NC1=O [3BP-4328] ({DOTA}-[X2]VYCE[dP]E(X64)WLTWSC-NH2; linker 4-13 via mXylylene),100 to 794 nM
3,CC(C)C[C@@H]1NC(=O)[C@H](Cc2ccc(NC(=O)Cn3cc(S(N)(=O)=O)cn3)cc2)NC(=O)[C@H](CC(=O)O)NC(=O)[C@H]2CCCN2C(=O)[C@H](CCC(=O)O)NC(=O)[C@@H](NC(=O)[C@H](CCC(N)=O)NC(=O)CN2CCN(C(=O)CN3CCN(CC(=O)O)CCN(CC(=O)O)CCN(CC(=O)O)CC3)CC2)CSCc2cccc(c2)CSC[C@@H](C(N)=O)NC(=O)[C@H](CO)NC(=O)[C@H](Cc2c[nH]c3ccccc23)NC(=O)[C@H]([C@@H](C)O)NC1=O [3BP-4482] ({DOTA}-[X1]QCE[dP]D[Phe(4-NH2)](X52)LTWSC-NH2; linker 3-12 via mXylylene),100 to 794 nM

# Same assay, conditions: FACS competition on HT-29 cells, Tracer ID 3BP-2776 (10 nM, biotin-labeled), 4° C., 1 hour; read-out: pIC50 category (activity) (converted)
row,Compound,IC50
1,CC(C)C[C@@H]1NC(=O)[C@H](Cc2c[nH]c3ccccc23)NC(=O)[C@H](CC(=O)O)NC(=O)[C@H]2CCCN2C(=O)[C@H](CCC(=O)O)NC(=O)[C@@H](NC(=O)[C@H](Cc2ccc(O)cc2)NC(=O)CCO)CSCc2cccc(c2)CSC[C@@H](C(N)=O)NC(=O)[C@H](CO)NC(=O)[C@H](Cc2c[nH]c3ccccc23)NC(=O)[C@H]([C@@H](C)O)NC1=O [3BP-3730] ({Propanoyl(3-OH)}-YCE[dP]DWLTWSC-NH2; linker 2-11 via mXylylene),< 10 nM
2,CCCCCC(=O)N[C@H](C(=O)N[C@@H](Cc1ccc(O)cc1)C(=O)N[C@H]1CSCc2cccc(c2)CSC[C@@H](C(N)=O)NC(=O)[C@H](CCC(N)=O)NC(=O)[C@H](Cc2c[nH]c3ccccc23)NC(=O)[C@H]([C@@H](C)O)NC(=O)[C@H](CC(C)C)NC(=O)[C@H](Cc2c[nH]c3ccccc23)NC(=O)[C@H](CC(=O)O)NC(=O)CNC(=O)[C@H](CCC(=O)O)NC1=O)C(C)C [3BP-3107] (Hexanoyl-VYCEGDWLTWQC-NH2; linker 3-12 via mXylylene),< 10 nM
3,CC(C)CC(=O)N[C@@H](CC(=O)O)C(=O)N[C@H]1CSCc2cccc(c2)CSC[C@@H](C(N)=O)NC(=O)[C@H](CCC(=O)NCCCNC(=O)COCCOCCNC(=O)CN2CCN(CC(=O)O)CCN(CC(=O)O)CCN(CC(=O)O)CC2)NC(=O)[C@H](Cc2c[nH]c3ccccc23)NC(=O)[C@H]([C@@H](C)O)NC(=O)[C@H](CC(C)C)NC(=O)[C@H](Cc2c[nH]c3ccccc23)NC(=O)[C@H](CC(=O)O)NC(=O)[C@H]2CCCN2C(=O)[C@H](CCC(=O)O)NC1=O [3BP-3871] (Isovaleryl-DCE[dP]DWLTWE(NH(CH2)3NH(O2Oc(DOTA)))C-NH2; linker 2-11 via mXylylene),10 to 79.4 nM
4,CC(=O)N[C@H](C(=O)N[C@@H](Cc1ccc(O)cc1)C(=O)N[C@H]1CSCc2cccc(c2)CSC[C@@H](C(N)=O)NC(=O)[C@H](CO)NC(=O)[C@H](Cc2c[nH]c3ccccc23)NC(=O)[C@H]2CCC(=O)NCCCC[C@H](NC(=O)[C@H]3CCCN3C(=O)[C@H](CCC(=O)O)NC1=O)C(=O)N[C@@H](Cc1c[nH]c3ccccc13)C(=O)N[C@@H](CC(C)C)C(=O)N2)C(C)C [3BP-3957] (Ac-VYCE[dP]KWL[dE]WSC-NH2; linker 3-12 via mXylylene; lactam 6-9),< 10 nM
5,CC(=O)N[C@H](C(=O)N[C@@H](Cc1ccc(O)cc1)C(=O)N[C@H]1CSCc2cccc(c2)CSC(C)(C)[C@@H](C(N)=O)NC(=O)[C@H](C)NC(=O)[C@H](Cc2c[nH]c3ccccc23)NC(=O)[C@H]([C@@H](C)O)NC(=O)[C@H](CC(C)(C)C)NC(=O)[C@H](Cc2c[nH]c3ccccc23)NC(=O)[C@H](CC(=O)O)NC(=O)CN(C)C(=O)[C@H](CCC(=O)O)NC1=O)C(C)C [3BP-3501] (Ac-VYCE[Sar]DW[tBuAla]TWA[Pen]-NH2; linker 3-12 via mXylylene),< 10 nM
